Source: US8436021B2, “Pharmaceutical composition for treating and/or preventing a pathology associated with an obsessional behavior or with obesity” (priority 2002, dated 2013)

How the values were obtained:
Type in all cases: in vivo, mouse
5-HT4 receptor [1] = test: Ingestion of food after 24 h food deprivation and i.p. drug injection (protocol of Lucas et al., 1998); conditions: for diminution of ingestion of food vs NaCl-treated mice of same genotype / effect on ingestion of food vs NaCl-treated mice of same genotype: MDMA 10 mg/kg, RS 39604 0.5 mg/kg i.p.; for effect on ingestion of food vs NaCl-treated mice of same genotype: 3 h after administration
Protocol: Each drug used to treat the wild mice disabled for the gene coding for the 5-HT4 receptor was diluted extemporaneously in a saline solution of NaCl (0.9%) and injected in a systemic manner (i.p.). The injection volume of each treatment was 200 μL for 30 g. The wild mice or those disabled for the 5-HT4 receptor (n=35) received the following treatments: NaCl, MDMA (or ecstasy or 3,4-N-methylene dioxymethamphetamine, SIGMA, 10 mg/kg), RS 39604, […]/MDMA.
(§1) The MDMA (10 mg/kg, Sigma, user license 9900431 S, V. Compan) and RS 39604 (0.5 mg/kg), antagonist of the 5-HT4 receptor, were administered by themselves or in a combined treatment to the wild mice or those deprived of the 5-HT4 receptor (n=12-17 by genotype and pharmacological products).
Ingestion of food by the wild mice and the mice disabled for the gene coding for the 5-HT4 receptor was evaluated in accordance with the test protocol described by Lucas et al., 1998. The different mice were isolated for a habituation period of three days in the presence of food and water supplied ad libitum during which the weights of the mice and of the food consumed were measured daily at the same hour. On the fourth day the mice were deprived of their food for 24 hours. The drugs were injected such as NaCl after the food deprivation period to determine the effect of the different treatments on ingestion of food. Food was reintroduced into each cage after an interval of 10 min for the other treatments. Three successive weighings of the food were then carried out 30 min, 1 h and 3 h after the reintroduction of the food.

leptine = test: Plasma leptine rates after administration of NaCl or MDMA; conditions: single administration MDMA 10 mg/kg, wild or mutant mice; p=0.95
Protocol: The data represents the average±the standard deviation from the average of the leptine rates of the plasma expressed in ng/mL after the administration of NaCl (0.9%) or of MDMA (10 mg/kg) in the wild (+/+) or the disabled (−/−) mice for the gene coding for the 5-HT4 receptor, aged six to 10 months on the average. **p<0.01 significant effect of the genotype after a variance analysis (ANOVA) followed by an F test of Scheffé.

5-HT4 receptor [2] = test: Constraint stress (forced immobilization 110 min): ingestion of food and weight; conditions: RS 39604 1 mg/kg, not shown
Protocol: Each of the tests was divided into three phases: A period of habituation (7 days), the day of the constraint stress (immobilization for 110 min) and a recovery stage (10 days). The mice were divided into a control group and a constraint group. On the stress day the wild mice disabled for the gene coding for the 5-HT4 receptor received an injection of NaCl […], 1 mg/kg of RS 39604, antagonist of the 5-HT4 receptor. […] Ingestion of food was then measured 2 h 30 min, 3 and 5 h and each day during the recovery period.

5-HT4 receptor [3] = test: Taking of food in mice nourished ad libitum (dose selection for RS 39604); conditions: 0.5 mg/kg, not illustrated
Protocol: as §1

Structure (SMILES)	diminution of ingestion of food vs NaCl-treated mice of same genotype (5-HT4 receptor [1]; mice lacking the 5-HT4 receptor (−/−), 30 min after administration) [%]	diminution of ingestion of food vs NaCl-treated mice of same genotype (5-HT4 receptor [1]; mice lacking the 5-HT4 receptor (−/−), 1 h after administration) [%]	effect on ingestion of food vs NaCl-treated mice of same genotype (5-HT4 receptor [1]; mice lacking the 5-HT4 receptor (−/−))	diminution of ingestion of food vs NaCl-treated mice of same genotype (5-HT4 receptor [1]; wild mice (+/+), 30 min after administration, 24 h food deprivation) [%]	diminution of ingestion of food vs NaCl-treated mice of same genotype (5-HT4 receptor [1]; wild mice (+/+), 1 h after administration, 24 h food deprivation) [%]	effect on ingestion of food vs NaCl-treated mice of same genotype (5-HT4 receptor [1]; wild mice (+/+), 24 h food deprivation)	rates of leptine in plasma (leptine)	effect of treatment alone on ingestion of food (statistical analysis of genotype, treatment, interaction) (5-HT4 receptor [1]; RS 39604 0.5 mg/kg i.p. alone, wild and mutant mice, 24 h food deprivation)	ingestion of food after constraint stress preceded by injection (5-HT4 receptor [2]; wild female mice)	weight losses after constraint stress vs NaCl-treated animals (5-HT4 receptor [2]; wild mice)	taking of food vs mice treated with NaCl or other dosages (5-HT4 receptor [3]; mutant animals for the 5-HT4 receptors)	taking of food vs mice treated with NaCl or other dosages (5-HT4 receptor [3]; nourished wild mice ad libitum)
CNC(C)Cc1ccc2c(c1)OCO2 (stereo not drawn) [MDMA, 3,4-N-methylene dioxymethamphetamine]	−69.07	−68.49	no longer observed	−95.38	−88.56	absent	does not modify the rates of leptine					
COc1cc(COc2cc(N)c(Cl)cc2C(=O)CCC2CCN(CCNS(C)(=O)=O)CC2)cc(OC)c1 [RS 39604]								does not reveal significant	not modified	reduced the weight losses	without effect	increase of the taking of food
